Patent US6670363B1, “Azole compounds as therapeutic agents for fungal infections” (Ranbaxy Laboratories Limited, priority 2000, dated 2003)
≈ marks a conversion by molar mass, not a printed value.

Experiments:
Type in all cases: cell-based
Cryptococcus neoformans = experiment: In vitro MIC, NCCLS M27A, Cryptococcus neoformans; parameters: MIC, C. neoformans I: unit not given beside the values; MIC, C. neoformans M 106: unit not given here; settings: for MIC, C. neoformans I: C. neoformans strain I; for MIC, C. neoformans M 106: C. neoformans strain M 106
Histoplasma capsulatum = system: Histoplasma capsulatum
A. fumigatus s 1008 = experiment: In vitro MIC, NCCLS M38P broth method (RPMI 1640/MOPS pH7), Aspergillus fumigatus; settings: A. fumigatus strain 1008
Candida = experiment: In vitro MIC, NCCLS M27A, Candida species; parameters: MIC, Candida albicans 1.549 / MIC, Candida albicans Y-01-19 / MIC, C. krusei 766-1 / MIC, C. krusei Q. C / MIC, Candida tropicalis ATCC / MIC, C. glabrata 90030: unit not given beside the values; MIC, Candida albicans A 26 / MIC, C. parapsilosis Q. C.: unit not given here; settings: for MIC, C. glabrata 90030: C. glabrata strain 90030; for MIC, C. krusei 766-1: C. krusei strain 766-1; for MIC, C. krusei Q. C: C. krusei strain Q. C; for MIC, C. parapsilosis Q. C.: C. parapsilosis strain Q. C.; for MIC, Candida albicans 1.549: Candida albicans strain 1.549; for MIC, Candida albicans A 26: Candida albicans strain A 26; for MIC, Candida albicans Y-01-19: Candida albicans strain Y-01-19

Row | Structure (SMILES) | MIC, C. neoformans I (Cryptococcus neoformans) | MIC, C. neoformans M 106 (Cryptococcus neoformans) | MIC, H. capsulatum (Histoplasma capsulatum) | MIC, A. fumigatus 1008 (A. fumigatus s 1008) | MIC, C. glabrata 90030 (Candida) | MIC, C. krusei 766-1 (Candida) | MIC, C. krusei Q. C (Candida) | MIC, C. parapsilosis Q. C. (Candida) | MIC, Candida albicans 1.549 (Candida) | MIC, Candida albicans A 26 (Candida) | MIC, Candida albicans Y-01-19 (Candida) | MIC, Candida tropicalis ATCC (Candida)
1 | Cc1ccc(N2CCN(c3ccc(-n4cnn([C@H](C)[C@](O)(Cn5cncn5)c5ccc(F)cc5F)c4=O)cc3)CC2)cc1Cl [Compound 17, 2-{[1R2R/1S2S]-2-(2,4-Difluorophenyl)-2-hydroxy-1-methyl-3-(1H-1,2,4-triazol-1-yl)propyl}-4-{4-[4-(3-chloro-4-methylphenyl)-1-piperazinyl]phenyl}-3-(2H,4H)-1,2,4-triazolone] | <0.03 | <0.03 | 0.25 µg/mL (≈ 0.403 µM) | 0.25 | 0.50 | 0.50 | 0.50 | <0.03 | 0.25 | <0.03 | 0.25 | <0.03
2 | Cc1nn([C@H](C)[C@](O)(Cn2cncn2)c2ccc(F)cc2F)c(=O)n1-c1ccc(N2CCN(c3cc(Cl)cc(Cl)c3)CC2)cc1 [Compound 29, 2-{[1R2R/1S2S]-2-(2,4-Difluorophenyl)-2-hydroxy-1-methyl-3-(1H-1,2,4-triazol-1-yl)propyl}-4-{4-[4-(3,5-dichlorophenyl)-1-piperazinyl]phenyl}-3-(2H,4H)-5-methyl-1,2,4-triazolone] | <0.03 | <0.03 | 0.25 µg/mL (≈ 0.381 µM) | 0.50 | 0.50 | 0.50 | 0.25 | <0.03 | 0.25 | <0.03 | 0.25 | <0.03
3 | C[C@@H](n1ncn(-c2ccc(N3CCN(c4ccc(F)cc4)CC3)cc2)c1=O)[C@](O)(Cn1cncn1)c1ccc(F)cc1F [Compound 11, 2-{[1R2R/1S2S]-2-(2,4-Difluorophenyl)-2-hydroxy-1-methyl-3-(1H-1,2,4-triazol-1-yl)propyl}-4-{4-[4-(4-fluorophenyl)-1-piperazinyl]phenyl}-3-(2H,4H)-1,2,4-triazolone] | <0.03 | <0.03 | < 0.03 µg/mL | 0.25 | 0.25 | 0.25 | 0.12 | <0.03 | 0.06 | <0.03 | 0.12 | <0.03
4 | Cc1nn([C@H](C)[C@@](O)(Cn2cncn2)c2ccc(F)cc2F)c(=O)n1-c1ccc(N2CCN(c3ccccc3F)CC2)cc1 [Compound 26, 2-{[1R2S/1S2R]-2-(2,4-Difluorophenyl)-2-hydroxy-1-methyl-3-(1H-1,2,4-triazol-1-yl)propyl}-4-{4-[4-(2-fluorophenyl)-1-piperazinyl]phenyl}-3-(2H,4H)-5-methyl-1,2,4-triazolone] | <0.03 | <0.03 | 0.12 µg/mL (≈ 0.198 µM) | 8.00 | 1.00 | 2.00 | 0.50 | <0.03 | 0.25 | <0.03 | 1.00 | <0.03
5 | Cc1ccc(N2CCN(c3ccc(-n4cnn([C@H](C)[C@](O)(Cn5cncn5)c5ccc(F)cc5F)c4=O)cc3)CC2)c(C)c1 [Compound 19, 2-{[1R2R/1S2S]-2-(2,4-Difluorophenyl)-2-hydroxy-1-methyl-3-(1H-1,2,4-triazol-1-yl)propyl}-4-{4-[4-(2,4-dimethylphenyl)-1-piperazinyl]phenyl}-3-(2H,4H)-1,2,4-triazolone] | <0.03 | <0.03 | 0.5 µg/mL (≈ 0.832 µM) | >16 | >16 | >16 | 0.50 | 0.06 | 1.00 | <0.03 | 1.00 | <0.03
6 | Cc1ccc(Cl)cc1N1CCN(c2ccc(-n3cnn([C@H](C)[C@@](O)(Cn4cncn4)c4ccc(F)cc4F)c3=O)cc2)CC1 [Compound 22, 2-{[1R2S/1S2R]-2-(2,4-Difluorophenyl)-2-hydroxy-1-methyl-3-(1H-1,2,4-triazol-1-yl)propyl}-4-{4-[4-(5-chloro-2-methylphenyl)-1-piperazinyl]phenyl}-3-(2H,4H)-1,2,4-triazolone] | 0.12 | 0.06 | > 16 µg/mL | >16 | 1.00 | 8.00 | 1.00 | 0.25 | 2.00 | <0.03 | 1.00 | <0.03
7 | Cc1ccc(Cl)cc1N1CCN(c2ccc(-n3cnn([C@H](C)[C@](O)(Cn4cncn4)c4ccc(F)cc4F)c3=O)cc2)CC1 [Compound 21, 2-{[1R2R/1S2S]-2-(2,4-Difluorophenyl)-2-hydroxy-1-methyl-3-(1H-1,2,4-triazol-1-yl)propyl}-4-{4-[4-(5-chloro-2-methylphenyl)-1-piperazinyl]phenyl}-3-(2H,4H)-1,2,4-triazolone] | <0.03 | <0.03 | 0.12 µg/mL (≈ 0.193 µM) | 1.00 | 0.50 | 0.50 | 0.25 | 0.06 | 0.25 | <0.03 | 0.25 | <0.03
8 | Cc1ccc(N2CCN(c3ccc(-n4cnn([C@H](C)[C@@](O)(Cn5cncn5)c5ccc(F)cc5F)c4=O)cc3)CC2)cc1C [Compound 24, 2-{[1R2S/1S2R]-2-(2,4-Difluorophenyl)-2-hydroxy-1-methyl-3-(1H-1,2,4-triazol-1-yl)propyl}-4-{4-[4-(3,4-dimethylphenyl)-1-piperazinyl]phenyl}-3-(2H,4H)-1,2,4-triazolone] | 0.50 | 1.00 | 0.25 µg/mL (≈ 0.416 µM) | >16 | 2.00 | >16 | 16.0 | 0.25 | 2.00 | <0.03 | 16.00 | <0.03
9 | COc1ccc(N2CCN(c3ccc(-n4cnn([C@H](C)[C@@](O)(Cn5cncn5)c5ccc(F)cc5F)c4=O)cc3)CC2)cc1 [Compound 14, 2-{[1R2S/1S2R]-2-(2,4-Difluorophenyl)-2-hydroxy-1-methyl-3-(1H-1,2,4-triazol-1-yl)propyl}-4-{4-[4-(4-methoxyphenyl)-1-piperazinyl]phenyl}-3-(2H,4H)-1,2,4-triazolone] | 0.50 | <0.03 | 0.12 µg/mL (≈ 0.199 µM) | >16 | 2.00 | >16 | 16.0 | 0.06 | 2.00 | <0.03 | 2.00 | <0.03
10 | O=c1n(-c2ccc(N3CCN(c4ccccc4)CC3)cc2)cnn1CC(O)(Cn1cncn1)c1ccc(F)cc1F (stereo not drawn) [Compound 45, 2-[2-(2,4-Difluorophenyl)-2-hydroxy-3-(1H-1,2,4-triazol-1-yl)propyl]-4-{4-[1-phenyl-1-piperazinyl]phenyl}-3-(2H,4H)-1,2,4-triazolone] | <0.02 | 0.10 | 3.12 µg/mL (≈ 5.59 µM) | >12.5 | 0.10 | 0.80 | 0.10 | <0.02 | 0.05 | <0.02 | 0.05 | 3.12
11 | Cc1ccc(N2CCN(c3ccc(-n4cnn([C@H](C)[C@@](O)(Cn5cncn5)c5ccc(F)cc5F)c4=O)cc3)CC2)c(C)c1 [Compound 20, 2-{[1R2S/1S2R]-2-(2,4-Difluorophenyl)-2-hydroxy-1-methyl-3-(1H-1,2,4-triazol-1-yl)propyl}-4-{4-[4-(2,4-dimethylphenyl)-1-piperazinyl]phenyl}-3-(2H,4H)-1,2,4-triazolone] | 0.25 | 0.25 | 0.5 µg/mL (≈ 0.832 µM) | >16 | 2.00 | >16 | 2.00 | 0.12 | 8.00 | <0.03 | 2.00 | <0.03
